We go through 30 molecules from patent US9914730B2, “Azaquinazoline inhibitors of Atypical protein Kinase C” (Ignyta, Inc., priority 2012, dated 2018).

The target in this test is T1, full-length human PKCι (Homo sapiens, UniProt P41743).
T1 construct: Recombinant, full-length human PKCι expressed in Sf21 insect cells is also commercially available; purchased; host or cells: Sf21 insect cells
T1 sequence (P41743 1-596): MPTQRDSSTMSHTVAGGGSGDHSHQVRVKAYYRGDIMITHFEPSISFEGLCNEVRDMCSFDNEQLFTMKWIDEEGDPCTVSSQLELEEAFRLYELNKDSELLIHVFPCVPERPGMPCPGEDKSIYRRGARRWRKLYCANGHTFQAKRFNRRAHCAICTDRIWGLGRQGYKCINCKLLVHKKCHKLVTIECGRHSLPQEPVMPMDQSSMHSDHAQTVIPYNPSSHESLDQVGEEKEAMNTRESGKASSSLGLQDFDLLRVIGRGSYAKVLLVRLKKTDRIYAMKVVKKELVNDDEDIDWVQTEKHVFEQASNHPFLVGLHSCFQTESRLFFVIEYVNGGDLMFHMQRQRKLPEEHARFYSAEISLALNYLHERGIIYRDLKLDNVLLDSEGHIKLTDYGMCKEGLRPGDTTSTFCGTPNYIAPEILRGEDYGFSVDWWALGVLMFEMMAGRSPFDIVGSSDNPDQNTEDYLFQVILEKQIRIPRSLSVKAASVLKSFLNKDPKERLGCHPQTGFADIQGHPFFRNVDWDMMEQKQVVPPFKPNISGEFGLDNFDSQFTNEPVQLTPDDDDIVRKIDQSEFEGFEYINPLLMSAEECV
The test can be described thus: PKCι IC50 IMAP assay, full-length PKCι at 150 μM ATP. The test is classed as biochemical. Conditions: read-out: IC50 in IMAP assay against full length PKCi at 150 μM ATP. In short, it runs like this:
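Recombinant full-length human PKCι (Sf21-expressed, typically 15 pM) phosphorylated 100 nM 5FAM-labelled PKCε pseudosubstrate-derived peptide with 150 μM ATP (5× KM^APP) in 18 mM tris-HCl pH7.5, 9 mM MgCl2, EGTA, DTT, 4% DMSO. After 60 min at room temperature, IMAP binding reagent was added for 2 h and fluorescence polarisation read.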

One may read the IC50 as the concentration needed to halve the response being measured.

In the case of `c1ccc(Nc2cc(-c3nc(N4CCCNCC4)c4c(C5CC5)cncc4n3)ccn2)cc1` [Example 632, [4-(5-Cyclopropyl-4-[1,4]diazepan-1-yl-pyrido[3,4-d]pyrimidin-2-yl)-pyridin-2-yl]-phenyl-amine], the IC50 is below 100 nM.
Regarding `Cc1ccnc(Nc2cc(-c3nc(N4CCNCC4)c4c(C5CC5)cncc4n3)ccn2)c1` [Example 267, [4-(5-Cyclopropyl-4-piperazin-1-yl-pyrido[3,4-d]pyrimidin-2-yl)-pyridin-2-yl]-(4-methyl-pyridin-2-yl)-amine], the IC50 was below 100 nM.
On to `CC(C)(C)c1cc2c(-c3nc(N4CCNCC4)c4c(C5CC5)cncc4n3)ccnc2[nH]1` [Example 1231, 2-(2-tert-Butyl-1H-pyrrolo[2,3-b]pyridin-4-yl)-5-cyclopropyl-4-piperazin-1-yl-pyrido[3,4-d]pyrimidine], for which the IC50 is below 100 nM.
In the case of `COc1cncc2nc(-c3ccnc(Nc4ccccc4)c3)nc(N3CCN[C@@H](CC#N)C3)c12` [Example 232, {(S)-4-[5-Methoxy-2-(2-phenylamino-pyridin-4-yl)-pyrido[3,4-d]pyrimidin-4-yl]-piperazin-2-yl}-acetonitrile], the concentration for half-maximal inhibition (IC50) fell in the range of 100 to 1000 nM.
For `c1cc(-c2nc(N3CCNCC3)c3c(C4CC4)cncc3n2)cc(NCC2CC2)n1` [Example 629, Cyclopropyl-methyl-[4-(5-cyclopropyl - 4-piperazin-1-yl-pyrido[3,4-d]pyrimidin-2-yl)-pyridin-2-yl]-amine] the value was below 100 nM; for `FC[C@H]1CN(c2nc(-c3ccnc(Nc4cccnc4F)c3)nc3cncc(C4CC4)c23)CCN1` [Example 531, {4-[5-Cyclopropyl-4-((R)-3-fluoromethyl-piperazin-1-yl)-pyrido[3,4-d]-pyrimidin-2-yl]-pyridin-2-yl}-(2-fluoro-pyridin-3-yl)-amine], below 100 nM.
For `Fc1cc(F)c(Nc2cc(-c3nc(N4CCNCC4)c4c(C5CC5)cncc4n3)ccn2)c(F)c1` [Example 650, [4-(5-Cyclopropyl-4-piperazin-1-yl-pyrido[3,4-d]pyrimidin-2-yl)-pyridin-2-yl]-(2,4,6-trifluoro-phenyl)-amine] the value was below 100 nM.
The result for `c1cc(-c2nc(N3CCNCC3)c3ccncc3n2)ccn1` [Example 1, 1-[2-(pyridin-4-yl)pyrido[3,4-d]pyrimidin-4-yl]piperazine] reads 100 to 1000 nM; that for `c1cnc(Nc2cc(-c3nc(N4CCNCC4)c4c(C5CC5)cncc4n3)ccn2)cn1` [Example 507], below 100 nM; that for `N#Cc1ccc(Nc2cc(-c3nc(N4CCNCC4)c4c(C5CC5)cncc4n3)ccn2)cn1` [Example 506, 5-[4-(5-Cyclopropyl-4-piperazin-1-yl-pyrido[3,4-d]pyrimidin-2-yl)-pyridin-2-ylamino]-pyridine-2-carbonitrile], 100 to 1000 nM.
For `COc1cncc2nc(-c3ccnc(Nc4cc(F)c(F)cc4F)c3)nc(N3CCNCC3)c12` [Example 455, [4-(5-Methoxy-4-piperazin-1-yl-pyrido[3,4-d]pyrimidin-2-yl)-pyridin-2-yl]-(2,4,5-trifluoro-phenyl)-amine], the IC50 was 100 to 1000 nM.
Turning to `N#Cc1ccnc(Nc2cc(-c3nc(N4CC[C@H](O)[C@H](O)C4)c4c(C5CC5)cncc4n3)ccn2)c1` (stereo in doubt) [Example 487, 2-{4-[5-Cyclopropyl-4-((3R,4S)-3,4-dihydroxy-piperidin-1-yl)-pyrido[3,4-d]pyrimidin-2-yl]-pyridin-2-ylamino}-isonicotinonitrile], the IC50 was below 100 nM.
Take `FC(F)(F)c1nc2cc(Nc3cc(-c4nc(N5CCNCC5)c5c(C6CC6)cncc5n4)ccn3)ccc2o1` [Example 2133, [4-(5-Cyclopropyl-4-piperazin-1-yl-pyrido[3,4-d]pyrimidin-2-yl)-pyridin-2-yl]-(2-trifluoromethyl-benzooxazol-5-yl)-amine]: the IC50 was below 100 nM.
`N#Cc1ccc(Nc2cc(-c3nc(N4CCNCC4)c4c(Cl)cncc4n3)ccn2)cn1` [Example 260, 5-[4-(5-Chloro-4-piperazin-1-yl-pyrido[3,4-d]pyrimidin-2-yl)-pyridin-2-ylamino]-pyridine-2-carbonitrile]: the IC50 fell in the range of 10000 to 40000 nM.
Consider `COc1cncc2nc(-c3ccncc3F)nc(N3CCNCC3)c12` [Example 63, 1-[2-(3-fluoropyridin-4-yl)-5-methoxypyrido-[3,4-d]pyrimidin-4-yl]piperazine], for which the IC50 fell in the range of 100 to 1000 nM.
The result for `Clc1ccccc1-c1cc2c(-c3nc(N4CCNCC4)c4c(C5CC5)cncc4n3)ccnc2[nH]1` [Example 2202, 2-[2-(2-Chloro-phenyl)-1H-pyrrolo[2,3-b]pyridin-4-yl]-5-cyclopropyl-4-piperazin-1-yl-pyrido[3,4-d]pyrimidine] reads below 100 nM; that for `CCP(=O)(CC)c1ccc(Nc2cc(-c3nc(N4CCNCC4)c4c(C5CC5)cncc4n3)ccn2)cc1` [Example 550, [4-(5-Cyclopropyl-4-piperazin-1-yl-pyrido[3,4-d]pyrimidin-2-yl)-pyridin-2-yl]-[4-(diethyl-phosphinoyl)-phenyl]-amine], below 100 nM.
The result for `COc1cncc2nc(-c3ccnc(Nc4cc(C#N)ccn4)c3)nc(N3CCC[C@@H](O)C3)c12` [Example 429, 2-{4-[4-((R)-3-Hydroxy-piperidin-1-yl)-5-methoxy-pyrido[3,4-d]pyrimidin-2-yl]-pyridin-2-ylamino}-isonicotinonitrile] reads 1000 to 10000 nM; that for `COCc1cc2c(-c3nc(N4CCNCC4)c4c(C5CC5)cncc4n3)ccnc2[nH]1` [Example 2075, 5-Cyclopropyl-2-(2-methoxymethyl-1H-pyrrolo[2,3-b]pyridin-4-yl)-4-piperazin-1-yl-pyrido[3,4-d]pyrimidine], below 100 nM; that for `Nc1ccc(C(=O)Nc2cc(-c3nc(N[C@@H]4CCNC4)c4ccncc4n3)ccn2)cc1` [Example 305, 4-Amino-N-{4-[4-((R)-pyrrolidin-3-ylamino)-pyrido[3,4-d]pyrimidin-2-yl]-pyridin-2-yl}-benzamide], 100 to 1000 nM.
In the case of `FC(F)(F)c1ccc(Nc2cc(-c3nc(N4CCNCC4)c4c(C5CCC5)cncc4n3)ccn2)nc1` [Example 809, [4-(5-Cyclobutyl-4-piperazin-1-yl-pyrido[3,4-d]pyrimidin-2-yl)-pyridin-2-yl]-(5-trifluoromethyl-pyridin-2-yl)-amine], the IC50 is below 100 nM.
On to `Fc1cnc(Nc2ccccc2)cc1-c1nc(N2CCNCC2)c2c(C3CC3)cncc2n1` [Example 654, [4-(5-Cyclopropyl-4-piperazin-1-yl-pyrido[3,4-d]pyrimidin-2-yl)-5-fluoro-pyridin-2-yl]-phenyl-amine], for which the IC50 is below 100 nM.
The result for `Fc1cccnc1-c1cc2c(-c3nc(N4CCNCC4)c4c(C5CCC5)cncc4n3)ccnc2[nH]1` [Example 2180, 5-Cyclobutyl-2-[2-(3-fluoro-pyridin-2-yl)-1H-pyrrolo[2,3-b]pyridin-4-yl]-4-piperazin-1-yl-pyrido[3,4-d]pyrimidine] reads below 100 nM; that for `Fc1cnccc1-c1nc(N[C@@H]2CCNC2)c2ccncc2n1` [Example 8, (3R)-N-[2-(3-fluoropyridin-4-yl)-pyrido[3,4-d]-pyrimidin-4-yl]-pyrrolidin-3-amine], 100 to 1000 nM; that for `Oc1nc(-c2ccnc(Nc3cccc(N4CCNCC4)c3)c2)nc2cnccc12` [Example 497, 2-[2-(3-piperazin-1-yl-phenylamino)-pyridin-4-yl]-pyrido[3,4-d]pyrimidin-4-ol], 10000 to 40000 nM.
The result for `COc1cc(Nc2cc(-c3nc(N4CCNCC4)c4c(C5CC5)cncc4n3)ccn2)c(F)cc1F` [Example 628, [4-(5-Cyclopropyl-4-piperazin-1-yl-pyrido[3,4-d]pyrimidin-2-yl)-pyridin-2-yl]-(2,4-difluoro-5-methoxy-phenyl)-amine] reads below 100 nM; that for `FC(F)(F)C1(c2cc3c(-c4nc(N5CCNCC5)c5c(C6CC6)cncc5n4)ccnc3[nH]2)CC1` [Example 1238, 5-Cyclopropyl-4-piperazin-1-yl-2-[2-(1-trifluoromethyl-cyclopropyl)-1H-pyrrolo[2,3-b]pyridin-4-yl]-pyrido[3,4-d]pyrimidine], below 100 nM; that for `C[C@@H](Nc1cc(-c2nc(N3CCNC(C)(C)C3)c3c(C4CC4)cncc3n2)ccn1)C1CC1` [Example 2006, {4-[5-Cyclopropyl-4-(3,3-dimethyl-piperazin-1-yl)-pyrido[3,4-d]pyrimidin-2-yl]-pyridin-2-yl}-((R)-1-cyclopropyl-ethyl)-amine], below 100 nM.
For `CC(C)(C)Nc1cc(-c2nc(N3CCNCC3)c3c(C4CC4)cncc3n2)ccn1` [Example 520, tert-Butyl-[4-(5-cyclopropyl-4-piperazin-1-yl-pyrido[3,4-d]pyrimidin-2-yl)-pyridin-2-yl]-amine] the value was below 100 nM; for `COc1cncc2nc(-c3ccncc3)nc(N3CCN[C@H](C)C3)c12` [Example 52, (3R)-1-[5-methoxy-2-(pyridin-4-yl)-pyrido[3,4-d]-pyrimidin-4-yl]-3-methylpiperazine], 1000 to 10000 nM.
